Patent US20210045385A1, “PYRIDAZINONE-SUBSTITUTED KETOXIMES AS HERBICIDES” (FMC Corporation, priority 2018, published 2021)

Columns and labels:
Type in all cases: in vivo
[1] = system: Italian ryegrass (Lolium mutiflorum); test: Test C preemergence, visual plant response rating
Method in brief: (§1)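 Compounds in a non-phytotoxic solvent with surfactant were applied as a directed soil spray preemergence or to 2–10 cm, one- to two-leaf plants postemergence, in loam–sand soil. After about 10 d in a greenhouse, injury was visually rated against untreated controls on a 0–100 scale (100 = complete control).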

[2] = system: barnyardgrass (Echinochloa crus-galli); test: Test C preemergence, visual plant response rating
Method in brief: as §1

[3] = system: foxtail, giant (giant foxtail, Setaria faberi); test: Test C preemergence, visual plant response rating
Method in brief: as §1

kochia (Bassia scoparia) [4] = test: Test C preemergence, visual plant response rating
Method in brief: as §1

[5] = system: pigweed (Amaranthus retroflexus); test: Test C preemergence, visual plant response rating
Method in brief: as §1

[6] = system: Italian ryegrass (Lolium mutiflorum); test: Test C postemergence, visual plant response rating
Method in brief: as §1

[7] = system: barnyardgrass (Echinochloa crus-galli); test: Test C postemergence, visual plant response rating
Method in brief: as §1

[8] = system: blackgrass (Alopecurus myosuroides); test: Test C postemergence, visual plant response rating
Method in brief: as §1

corn (Zea mays) = test: Test C postemergence, visual plant response rating
Method in brief: as §1

[9] = system: foxtail, giant (giant foxtail, Setaria faberi); test: Test C postemergence, visual plant response rating
Method in brief: as §1

[10] = system: galium (catchweed bedstraw, Galium aparine); test: Test C postemergence, visual plant response rating
Method in brief: as §1

kochia (Bassia scoparia) [11] = test: Test C postemergence, visual plant response rating
Method in brief: as §1

[12] = system: pigweed (Amaranthus retroflexus); test: Test C postemergence, visual plant response rating
Method in brief: as §1

[13] = system: ragweed (common ragweed, Ambrosia artemisiifolia); test: Test C postemergence, visual plant response rating
Method in brief: as §1

[14] = system: wheat (Triticum aestivum); test: Test C postemergence, visual plant response rating
Method in brief: as §1

[15] = system: barnyardgrass (Echinochloa crus-galli); test: Test D flooded paddy test, visual plant response rating; settings: 250 g ai/ha, scale 0 to 100 (0 no effect, 100 complete control), 13 to 15 d
Method in brief: (§2)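 2-leaf plants, flooded 3 cm, cpd into paddy water; greenhouse 13–15 d; visual rating vs controls, 0 = no effect, 100 = complete control; dash = no result.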

[16] = system: duck salad (Heteranthera limosa); test: as above; settings: 250 g ai/ha, scale 0 to 100 (0 no effect, 100 complete control), 13 to 15 d
Method in brief: as §2

rice (Oryza sativa) = test: as above; settings: 250 g ai/ha, scale 0 to 100 (0 no effect, 100 complete control), 13 to 15 d
Method in brief: as §2

[17] = system: sedge umbrella (small-flower umbrella sedge, Cyperus difformis); test: as above; settings: 250 g ai/ha, scale 0 to 100 (0 no effect, 100 complete control), 13 to 15 d
Method in brief: as §2

[18] = Test C, 31 g ai/ha, 0 is no effect, 100 is complete control
[19] = Test C, 125 g ai/ha, 0 is no effect, 100 is complete control
[20] = Test C, postemergence, 125 g ai/ha
[21] = Test C, postemergence, 500 g ai/ha

Compound	Ryegrass, Italian plant response rating (0 to 100 scale) [1, 18]	Barnyardgrass plant response rating (0 to 100 scale) [2, 18]	Foxtail, Giant plant response rating (0 to 100 scale) [3, 18]	Kochia plant response rating (0 to 100 scale) (kochia (Bassia scoparia) [4]; [18])	Pigweed plant response rating (0 to 100 scale) [5, 18]	Ryegrass, Italian plant response rating (0 to 100 scale) ([6]; Postemergence, 31 g ai/ha)	Ryegrass, Italian plant response rating (0 to 100 scale) [6, 20]	Barnyardgrass plant response rating (0 to 100 scale) [7, 20]	Blackgrass plant response rating (0 to 100 scale) [8, 20]	Corn plant response rating (0 to 100 scale) (corn (Zea mays); [20])	Foxtail, Giant plant response rating (0 to 100 scale) [9, 20]	Galium plant response rating (0 to 100 scale) [10, 20]	Kochia plant response rating (0 to 100 scale) (kochia (Bassia scoparia) [11]; [20])	Pigweed plant response rating (0 to 100 scale) [12, 20]	Ragweed plant response rating (0 to 100 scale) [13, 20]	Wheat plant response rating (0 to 100 scale) [14, 20]	Plant response rating, Barnyardgrass (Flood) [15]	Plant response rating, Ducksalad (Flood) [16]	Plant response rating, Rice (Flood) (rice (Oryza sativa))	Plant response rating, Sedge, Umbrella (Flood) [17]	also measured
CO/N=C(/c1c(O)c(Cl)nn(C)c1=O)c1ccc(F)c2ccccc12 [Compound 207]	40	20	30	0	50	20	80	60	20	10	70	100	70	80	90	0	0	0	0	0	Ryegrass, Italian plant response rating (0 to 100 scale) [1, 19]: 80; Barnyardgrass plant response rating (0 to 100 scale) [2, 19]: 80; Foxtail, Giant plant response rating (0 to 100 scale) [3, 19]: 90; Kochia plant response rating (0 to 100 scale) (kochia (Bassia scoparia) [4]; [19]): 60; Pigweed plant response rating (0 to 100 scale) [5, 19]: 80; Barnyardgrass plant response rating (0 to 100 scale) ([7]; Postemergence, 31 g ai/ha): 20; Blackgrass plant response rating (0 to 100 scale) ([8]; Postemergence, 31 g ai/ha): 30; Corn plant response rating (0 to 100 scale) (corn (Zea mays); Postemergence, 31 g ai/ha): 30; Foxtail, Giant plant response rating (0 to 100 scale) ([9]; Postemergence, 31 g ai/ha): 30; Galium plant response rating (0 to 100 scale) ([10]; Postemergence, 31 g ai/ha): 90; Kochia plant response rating (0 to 100 scale) (kochia (Bassia scoparia) [11]; Postemergence, 31 g ai/ha): 60; Pigweed plant response rating (0 to 100 scale) ([12]; Postemergence, 31 g ai/ha): 50; Ragweed plant response rating (0 to 100 scale) ([13]; Postemergence, 31 g ai/ha): 30; Wheat plant response rating (0 to 100 scale) ([14]; Postemergence, 31 g ai/ha): 0
CCON=C(c1cc(Cl)cc(Br)c1)c1c(O)c(C)nn(C)c1=O [Compound 181]	0	0	50	30	30	70	100	60	20	30	80	100	80	90	100	50	0	0	0	0	Ryegrass, Italian plant response rating (0 to 100 scale) ([1]; 125 g ai/ha): 90; Barnyardgrass plant response rating (0 to 100 scale) ([2]; 125 g ai/ha): 60; Foxtail, Giant plant response rating (0 to 100 scale) ([3]; 125 g ai/ha): 90; Kochia plant response rating (0 to 100 scale) (kochia (Bassia scoparia) [4]; 125 g ai/ha): 70; Pigweed plant response rating (0 to 100 scale) ([5]; 125 g ai/ha): 90; Barnyardgrass plant response rating (0 to 100 scale) ([7]; Postemergence, 31 g ai/ha): 40; Blackgrass plant response rating (0 to 100 scale) ([8]; Postemergence, 31 g ai/ha): 0; Corn plant response rating (0 to 100 scale) (corn (Zea mays); Postemergence, 31 g ai/ha): 0; Foxtail, Giant plant response rating (0 to 100 scale) ([9]; Postemergence, 31 g ai/ha): 50; Galium plant response rating (0 to 100 scale) ([10]; Postemergence, 31 g ai/ha): 100; Kochia plant response rating (0 to 100 scale) (kochia (Bassia scoparia) [11]; Postemergence, 31 g ai/ha): 60; Pigweed plant response rating (0 to 100 scale) ([12]; Postemergence, 31 g ai/ha): 40; Ragweed plant response rating (0 to 100 scale) ([13]; Postemergence, 31 g ai/ha): 100; Wheat plant response rating (0 to 100 scale) ([14]; Postemergence, 31 g ai/ha): 0
Cc1nn(C)c(=O)c(C(=NOCC2CC2)c2cc(Cl)cc(Cl)c2Cl)c1O [Compound 182]	30	0	70	0	0	70	100	60	10	30	90	100	70	50	100	70	0	0	0	0	Ryegrass, Italian plant response rating (0 to 100 scale) ([1]; 125 g ai/ha): 100; Barnyardgrass plant response rating (0 to 100 scale) ([2]; 125 g ai/ha): 90; Foxtail, Giant plant response rating (0 to 100 scale) ([3]; 125 g ai/ha): 100; Kochia plant response rating (0 to 100 scale) (kochia (Bassia scoparia) [4]; 125 g ai/ha): 0; Pigweed plant response rating (0 to 100 scale) ([5]; 125 g ai/ha): 70; Barnyardgrass plant response rating (0 to 100 scale) ([7]; Postemergence, 31 g ai/ha): 50; Blackgrass plant response rating (0 to 100 scale) ([8]; Postemergence, 31 g ai/ha): 10; Corn plant response rating (0 to 100 scale) (corn (Zea mays); Postemergence, 31 g ai/ha): 0; Foxtail, Giant plant response rating (0 to 100 scale) ([9]; Postemergence, 31 g ai/ha): 70; Galium plant response rating (0 to 100 scale) ([10]; Postemergence, 31 g ai/ha): 70; Kochia plant response rating (0 to 100 scale) (kochia (Bassia scoparia) [11]; Postemergence, 31 g ai/ha): 10; Pigweed plant response rating (0 to 100 scale) ([12]; Postemergence, 31 g ai/ha): 10; Ragweed plant response rating (0 to 100 scale) ([13]; Postemergence, 31 g ai/ha): 40; Wheat plant response rating (0 to 100 scale) ([14]; Postemergence, 31 g ai/ha): 0
C#CCON=C(c1c(O)c(OC)nn(C)c1=O)c1cccc2ccccc12 (mixture of isomers) [Compound 168]	–	–	–	–	–	–	40	40	20	0	50	70	70	60	60	0	0	0	0	0	Ryegrass, Italian plant response rating (0 to 100 scale) ([1]; 125 g ai/ha): 20; Ryegrass, Italian plant response rating (0 to 100 scale) ([1]; 500 g ai/ha): 90; Barnyardgrass plant response rating (0 to 100 scale) ([2]; 125 g ai/ha): 60; Barnyardgrass plant response rating (0 to 100 scale) ([2]; 500 g ai/ha): 80; Foxtail, Giant plant response rating (0 to 100 scale) ([3]; 125 g ai/ha): 80; Foxtail, Giant plant response rating (0 to 100 scale) ([3]; 500 g ai/ha): 100; Kochia plant response rating (0 to 100 scale) (kochia (Bassia scoparia) [4]; 125 g ai/ha): 0; Kochia plant response rating (0 to 100 scale) (kochia (Bassia scoparia) [4]; 500 g ai/ha): 10; Pigweed plant response rating (0 to 100 scale) ([5]; 125 g ai/ha): 100; Pigweed plant response rating (0 to 100 scale) ([5]; 500 g ai/ha): 100; Ryegrass, Italian plant response rating (0 to 100 scale) [6, 21]: 90; Barnyardgrass plant response rating (0 to 100 scale) [7, 21]: 60; Blackgrass plant response rating (0 to 100 scale) [8, 21]: 80; Corn plant response rating (0 to 100 scale) (corn (Zea mays); [21]): 20; Foxtail, Giant plant response rating (0 to 100 scale) [9, 21]: 90; Galium plant response rating (0 to 100 scale) [10, 21]: 90; Kochia plant response rating (0 to 100 scale) (kochia (Bassia scoparia) [11]; [21]): 80; Pigweed plant response rating (0 to 100 scale) [12, 21]: 100; Ragweed plant response rating (0 to 100 scale) [13, 21]: 90; Wheat plant response rating (0 to 100 scale) [14, 21]: 30
